Measurements: US11732560B1, “Nitrate treatment for injectivity improvement” (SAUDI ARABIAN OIL COMPANY, priority 2022, dated 2023)
Read-outs that look alike come from different tables or passages of the source.

Legend:
[1] = system: sulfate reducing bacteria (SRB)
Experimental: The second injection rate, 23 mg/l, was maintained for three weeks.

[2] = system: Nitrate Utilizing Bacterial (NUB); assay: Field trial microbiological monitoring: planktonic NUB population; type: cell-based, nitrate utilizing bacteria
Experimental: (§1) A field experiment was conducted in an oil field water injection system to determine the effect of nitrate (NO3^-) for controlling sulfate reducing bacteria (SRB) in oilfield operations, and microbial influence corrosion (MIC) for surface pipelines.

NRSOB = system: NRSOB
Experimental: as §1

sulfide production = system: sulfide production
Experimental: as §1

O=[N+]([O-])O [nitrate]
SRB activities ([1]; increase observed later after 23 mg/l period, maintained): 101 SRB/ml | minimum SRB achieved ([1]; nitrate 11 mg/l): 10^1 bacteria/ml | SRB activities ([1]; nitrate 23 mg/l, at the end of three weeks): below the detection limits | drop in SRB activities ([1]; nitrate 45 mg/l, 10^2 SRB/ml before injection): 50% | NUB population ([2]; initially detected, start of nitrate treatment): 104 NUB/ml | planktonic NUB population ([2]; nitrate reduced to 23 mg/L and 11 mg/L, over 7 days and after 56 days): 106 mL⁻¹ | NUB population ([2]; over nitrate treatment with 45 mg/L): ~10^6 NUB/ml | NRSOB numbers (NRSOB; nitrate dose reduced, decreased from 10^6): 10^4 per ml | NRSOB numbers (NRSOB; over treatment with nitrate at 45 mg/L, increased from 10^3): 10^6 /ml | sulfide level (sulfide production; nitrate 11 mg/L): 6.7 mg/L | sulfide level (sulfide production; nitrate 23 mg/l): 8 mg/L | sulfide concentration (sulfide production; nitrate ion 45 mg/L, 15.8-17.3 ppm detected beforehand): 8.3 ppm
